Experimental data published in PubChem BioAssay AID1963985 (Molecular Pharmacology Branch, DTP, NCI, 2024).

Tested on: 252836-082-R-J2-PDC tumor spheroids, viability
Assay: Anticancer human tumor 252836-082-R-J2-PDC patient-derived head and neck squamous cell carcinoma cell line growth inhibition [PI3K]
Conditions: spheroids with HUVEC and MSC; for viability, T/C: stronger effect = lower value
Text: Combinatorial screen of targeted agents with the PI3K inhibitors inavolisib, alpelisib, duvelisib, and copanlisib in multi-cell type tumor spheroids
A high-throughput screen of multi-cell type tumor spheroids was designed to identify active combinations of targeted small molecules and PI3K pathway inhibitors. Complex spheroids include a stromal component modeled by human endothelial cells (HUVEC) and fibroblasts modeled by human mesenchymal stem cells (MSCs). The concentration ranges selected for each drug and investigational agent were based upon clinically achievable concentrations if the clinical Cmax of the agent was known.
Compounds. The drugs and investigational agents: inavolisib (NSC800729), alpelisib (NSC765974), duvelisib (NSC772469), copanlisib (NSC816437), ipatasertib (NSC767898), afuresertib (NSC778305), talazoparib (NSC767125), sapanisertib (NSC764658), selumetinib (NSC741078), tovorafenib (DAY101, NSC766906), vemurafenib (NSC761431), ravoxertinib (NSC781343), sotorasib (NSC818433), MRTX1133 (NSC 836407), abemaciclib (NSC 768073), palbociclib (NSC758247), venetoclax (NSC 766270), SY5609 (NSC837396), enzalutamide (NSC755605), and darolutamide (NSC825331), were obtained from the National Cancer Institute (NCI) Developmental Therapeutics Program Chemical Repository. The FDA-approved anticancer drug set is available from the NCI Developmental Therapeutics Program. […] The stock solutions were prepared in dimethyl sulfoxide (DMSO, Sigma-Aldrich, St. Louis, MO, cat. D2650) at 800-fold the tested concentration and stored at -70 degrees C prior to their use. All drugs and investigational agents were tested over a range starting from a high concentration at or near the clinical Cmax and decreasing in half-log increments. If the clinical Cmax for an agent had not been determined, the highest concentration tested was 10 microM.
Cell Culture. All cells were maintained in an incubator at 37 degrees C and 5% CO2 with 95% humidity. The PDC lines were cultured according to standard operating procedures established by the NCI PDMR (https://pdmr.cancer.gov/sops/default.htm). All PDCs were thawed and cultured in Matrigel-coated flasks prepared with a working solution of 1X Ham's F-12 nutrient mix, without supplementation (Invitrogen, Waltham, MA, cat. 11765054), 100 U/mL penicillin-streptomycin (Invitrogen, cat. 15140122), and 2.5% Matrigel (Corning Inc., Corning, NY, cat. 354248) for the first three passages. The 354836-022-R-J1-PDC, 475296-252-R-J1-PDC, and 997726-040-R-J2-PDC lines were cultured in 6A media, which includes advanced DMEM/F-12 (Thermo Fisher Scientific, cat. 12634028), 10 mM HEPES (Thermo Fisher Scientific, cat. 15630080), 1X GlutaMAX supplement (Thermo Fisher Scientific, cat. 35050061), 0.1 mg/mL primocin (InvivoGen, San Diego, CA, cat. ant-pm-2), 10% defined fetal bovine serum, heat inactivated (HyClone Laboratories Inc., Logan, UT, cat. SH30070.03HI), 50% L-WRN conditioned media (ATCC, cat. CRL-3276), 1.25 mM N-Acetyl-L-cysteine (Sigma-Aldrich, cat. A9165), 10 mM nicotinamide (Sigma-Aldrich, cat. N0636), 1X B-27 supplement (Thermo Fisher Scientific, cat. 17504044), 1X N-2 supplement (Thermo Fisher Scientific, cat. 17502048), and 10 microM Y-27632 dihydrochloride (Tocris Bioscience, Bristol, United Kingdom, cat. 1254). The 624824-186-R-J2-PDC line was cultured in 6C/Colon 1B media, which includes all 6A media components plus 50 ng/mL human EGF recombinant protein (Thermo Fisher Scientific, cat. PHG0311). […]
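Note: spheroids exposed to agents for seven days before readout.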
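Throughout, for viability, T/C: percent of vehicle DMSO control viability so 100% = untreated growth.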

Compound: Cn1nccc1Nc1nccc(-c2ccn(C(CO)c3ccc(Cl)c(F)c3)c(=O)c2)n1 (centres undefined)
- viability, T/C (compound 0.0316 µM): 95.5% [middle of 4 runs]
- viability, T/C (compound 0.1 µM): 100% [middle of 4 runs]
- viability, T/C (compound 0.316 µM): 96.9% [middle of 4 runs]
- viability, T/C (compound 1 µM): 96.5% [middle of 4 runs]
- viability, T/C (compound 3.16 µM): 85.2% [middle of 4 runs]
- viability, T/C (compound 10 µM): 74.2% [middle of 4 runs]
- IC50 (curve of compound): > 10 µM

Compound: CC1(C)CCC(Nc2ncc(C(F)(F)F)c(-c3c[nH]c4c(P(C)(C)=O)c(C#N)ccc34)n2)CN1 (centres undefined) + CC(Nc1ncnc2nc[nH]c12)c1cc2cccc(Cl)c2c(=O)n1-c1ccccc1
- IC50 (curve of first compound, second compound 0.0316 µM): < 0.0316 µM
- IC50 (curve of first compound, second compound 0.1 µM): < 0.0316 µM
- IC50 (curve of first compound, second compound 0.316 µM): < 0.0316 µM
- IC50 (curve of first compound, second compound 1 µM): < 0.0316 µM
- IC50 (curve of first compound, second compound 3.16 µM): < 0.0316 µM
- IC50 (curve of first compound, second compound 10 µM): < 0.0316 µM
- viability, T/C (second compound 0.0316 µM, first compound 0.0316 µM): 31.1%
- viability, T/C (second compound 0.0316 µM, first compound 0.1 µM): 26.6%
- viability, T/C (second compound 0.0316 µM, first compound 0.316 µM): 28.6%
- viability, T/C (second compound 0.0316 µM, first compound 1 µM): 32.2%
- viability, T/C (second compound 0.0316 µM, first compound 3.16 µM): 34.7%
- viability, T/C (second compound 0.0316 µM, first compound 10 µM): 4.13%
- viability, T/C (second compound 0.1 µM, first compound 0.0316 µM): 34.2%
- viability, T/C (second compound 0.1 µM, first compound 0.1 µM): 27.4%
- viability, T/C (second compound 0.1 µM, first compound 0.316 µM): 31.6%
- viability, T/C (second compound 0.1 µM, first compound 1 µM): 26.4%
- viability, T/C (second compound 0.1 µM, first compound 3.16 µM): 36.9%
- viability, T/C (second compound 0.1 µM, first compound 10 µM): 5.65%
- viability, T/C (second compound 0.316 µM, first compound 0.0316 µM): 32.4%
- viability, T/C (second compound 0.316 µM, first compound 0.1 µM): 32.9%
- viability, T/C (second compound 0.316 µM, first compound 0.316 µM): 27.7%
- viability, T/C (second compound 0.316 µM, first compound 1 µM): 30.1%
- viability, T/C (second compound 0.316 µM, first compound 3.16 µM): 33.8%
- viability, T/C (second compound 0.316 µM, first compound 10 µM): 4.38%
- viability, T/C (second compound 1 µM, first compound 0.0316 µM): 27.9%
- viability, T/C (second compound 1 µM, first compound 0.1 µM): 31.8%
- viability, T/C (second compound 1 µM, first compound 0.316 µM): 32.4%
- viability, T/C (second compound 1 µM, first compound 1 µM): 28.7%
- viability, T/C (second compound 1 µM, first compound 3.16 µM): 33.4%
- viability, T/C (second compound 1 µM, first compound 10 µM): 4.12%
- viability, T/C (second compound 3.16 µM, first compound 0.0316 µM): 26.3%
- viability, T/C (second compound 3.16 µM, first compound 0.1 µM): 26.2%
- viability, T/C (second compound 3.16 µM, first compound 0.316 µM): 28%
- viability, T/C (second compound 3.16 µM, first compound 1 µM): 31.9%
- viability, T/C (second compound 3.16 µM, first compound 3.16 µM): 25.9%
- viability, T/C (second compound 3.16 µM, first compound 10 µM): 3.79%
- viability, T/C (second compound 10 µM, first compound 0.0316 µM): 27.2%
- viability, T/C (second compound 10 µM, first compound 0.1 µM): 21.5%
- viability, T/C (second compound 10 µM, first compound 0.316 µM): 26%
- viability, T/C (second compound 10 µM, first compound 1 µM): 23%
- viability, T/C (second compound 10 µM, first compound 3.16 µM): 22.6%
- viability, T/C (second compound 10 µM, first compound 10 µM): 1.83%
